We go through 14 compounds from PubChem BioAssay (NCI).

Broadly, the TGI is the concentration giving total growth inhibition. Higher therefore signals less potent growth arrest. In general, GI50 refers to the concentration that inhibits growth by half.

Holding throughout (experiment): DTP human tumour cell line panel, 48 h
For experiment [1], the system named is NCI-H460 lung.
The subject of experiment [2] is NCI/ADR-RES ovarian.
The subject of experiment [3] is HS 578T breast.
In experiment [4] the test system is SNB-19 CNS.
Experiment [5] relates to ACHN renal.
For experiment [6], the system named is SNB-75 CNS.
Experiment [7] has as its system OVCAR-4 ovarian.
Experiment [8] concerns OVCAR-3 ovarian.
Experiment [9] has as its system CAKI-1 renal.
Experiment [10] deals with HOP-62 NSCLC.

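Assay format: 96-well plates, 48-hour exposure. GI50: concentration for 50% inhibition of growth. TGI marks complete inhibition of growth.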

Regarding `CCOC(=O)c1cnc2n(c1=O)[C@H]1CCCC[C@@H]1N2`, the total growth inhibition concentration (TGI) in [1], in experiment [2], in experiment [3], in [4], in experiment [5] and in experiment [6] was more than 100 µM each time. Further, the TGI in experiment [7], in [8] and in [9] was more than 100 µM in each case.
With `Cc1cc(NS(=O)(=O)c2ccc(Nc3c4ccccc4nc4c(C(=O)NC(CO)(CO)CO)cccc34)cc2)no1`, the TGI is more than 100 µM in experiment [2]; 52.7 µM in experiment [3]; more than 100 µM in experiment [4]; more than 100 µM in [5]; 55.1 µM in [6]; more than 100 µM in experiment [7]. Also, the TGI was more than 100 µM in experiment [8], 68.8 µM in experiment [10] and more than 100 µM in experiment [9].
For the compound `COc1ccc(-c2nc(-c3cnccn3)n(C/C=C/c3ccccc3)n2)cc1`, the TGI in experiment [1] was more than 100 µM; in experiment [2] it was more than 100 µM; in [4], more than 100 µM; in [6], 51.7 µM; in experiment [7], 98.6 µM; in experiment [8], more than 100 µM. The same compound registered a TGI in experiment [10] of 60.3 µM.
As for `COc1ccc(NCn2nc(CCCCCCCCc3nn(CNc4ccc(OC)cc4)c(=S)o3)oc2=S)cc1`, the TGI in experiment [1], in experiment [2], in experiment [4], in [5], in [6] and in [7] was more than 100 µM each time. For the same compound, the total growth inhibition concentration (TGI) in [10] and in experiment [9] was more than 100 µM in each case.
As to `C[C@@H]([C@H]1CC[C@@]2(C)[C@@H]3CC[C@@H]4C(=CC3=CC[C@]12C)CC[C@H](N(C)C)C4(C)C)N(C)C`, the concentration for total growth inhibition (TGI) in [1], in experiment [2], in experiment [3], in [4], in [5] and in [7] was more than 100 µM throughout. The TGI in experiment [8], in experiment [10] and in experiment [9] was more than 100 µM in each case.
Take `COc1cccc(C2C(C#N)=C(N)Oc3cc(OCCCCCC[P+](c4ccccc4)(c4ccccc4)c4ccccc4)ccc32)c1` (stereo unspecified): the GI50 was 11.9 µM in experiment [2]; 0.608 µM in [3]; 0.366 µM in [4]; 2.04 µM in experiment [5]; 0.21 µM in experiment [6]; 0.384 µM in experiment [7]. For the same compound, the GI50 in experiment [8] is 0.382 µM; in experiment [10] it was 1.62 µM; in [9], 1.68 µM. Further, the TGI in experiment [2] was found to be 78.3 µM; in experiment [3], 2.78 µM; in [4], 1.44 µM; in experiment [5], 4.92 µM; in [6], 2.11 µM; in experiment [7] it was 1.51 µM. Moreover, the values for the TGI in experiment [8], in [10] and in experiment [9] were 1.37 µM, 4.16 µM and 3.48 µM, respectively.
Consider `CCOC(=O)C1=C(N2CCCC2)C(=O)C(C(=O)OCC)C1` (stereo unspecified), for which the TGI in experiment [1], in experiment [2], in [4], in experiment [5], in experiment [6] and in [7] was more than 100 µM throughout. Also, the TGI in experiment [8], in experiment [10] and in [9] was more than 100 µM throughout.
On to `O=C(NNC(=O)c1ccc(Cl)cc1NC(=O)C12CC3CC(CC(C3)C1)C2)c1ccc(Cl)cc1`, for which the TGI in experiment [1] is 66.3 µM; in experiment [2] it was 63.1 µM; in experiment [3], 46.6 µM; in experiment [4] it was 39.4 µM; in experiment [5], 51.6 µM; in experiment [7] it was more than 100 µM. The TGI in [8] came to 58.3 µM; in experiment [10] it was 44.4 µM; in experiment [9], 73.6 µM.
As for `CSCCC(NC(=O)C(Cc1c[nH]c2ccccc12)NC(=O)CCNC(=O)OC(C)(C)C)C(=O)NC(CC(=O)O)C(=O)NC(Cc1ccccc1)C(N)=O` (stereo unspecified), the TGI in experiment [2], in experiment [3], in [6], in [8], in [10] and in experiment [9] was more than 50 µM each time.
`C[C@H](NC(=O)C(C)(Cc1ccc(O)cn1)NC(=O)c1ccccc1)c1ccccc1` (stereo partly specified): the TGI in [2], in experiment [3], in [4], in experiment [5], in experiment [7] and in experiment [8] was more than 100 µM throughout. In addition, the concentration for total growth inhibition (TGI) in experiment [10] and in experiment [9] was more than 100 µM in each case.
Turning to `CC(C)=CCNc1ncnc2c1ncn2CCC(=O)O`, the TGI in experiment [1], in experiment [2], in experiment [3], in experiment [4], in [5] and in experiment [6] was more than 100 µM each time. Moreover, the TGI in experiment [7], in [8] and in experiment [10] was more than 100 µM each time.
As to `NCCCNCCSP(=O)(O)O`, the concentration for total growth inhibition (TGI) in experiment [1], in experiment [2], in experiment [4], in [6], in [7] and in [8] was more than 750 µM in each case. The TGI in experiment [10] and in experiment [9] was more than 750 µM each time.
Consider `C/C(=N\Nc1nc2cc(F)ccc2s1)c1ccccn1`, for which the TGI in experiment [1] is more than 100 µM; in experiment [2] it was 0.12 µM; in experiment [4], more than 41.7 µM; in experiment [5], 1.35 µM; in [6], 4.68 µM; in [7] it was 3.32 µM. Also, the results for the TGI in [8], in experiment [10] and in experiment [9] were 5.45 µM, more than 21.9 µM and 5.67 µM, respectively.
As for `Cc1ccc(N2Cc3c(ccc4ccccc34)OP2(=S)N2CCCC2)cc1` (stereo unspecified), the TGI in [1] was more than 100 µM; in [2], more than 100 µM; in experiment [4], more than 100 µM; in [6], more than 100 µM; in experiment [7] it was more than 100 µM; in experiment [8] it was more than 55.7 µM. Further, the TGI in experiment [10] and in experiment [9] was more than 100 µM throughout.
